The values that follow come from patent US12582677B2, “Methods for producing retinal tissue and retina-related cell” (SUMITOMO CHEMICAL COMPANY, LIMITED, priority 2011, dated 2026).

One data set has as its system Human ES cells (KhES-1). In words: Production of retinal pigment epithelium from human ES cell aggregates. The class given is cell-based. As to conditions: Matrigel and serum steps. The method, then: Human ES cells (KhES-1) were cultured according to the methods described in “Ueno, M. et al. PNAS 2006”, “Watanabe, K. et al. Nat Biotech 2007” and used for the experiment. As the medium, DMEM/F12 medium (Invitrogen) added with 20% KSR (Knockout Serum Replacement; Invitrogen), 0.1 mM 2-mercaptoethanol, 1 mM pyruvic acid, and 5 to 10 ng/ml bFGF was used. For the formation of retinal tissue by floating culture, the ES cells were dispersed into single cells by using 0.25% trypsin-EDTA (Invitrogen), suspended in a serum-free medium (100 μl) to 9×10^3 cells per well of a non-cell adhesive 96-well culture plate (SUMILON spheroid plate, SUMITOMO BAKELITE CO., LTD.) to allow for rapid formation of aggregates, and floating cultured at 37° C., 5% CO2. As the serum-free medium in this case, a serum-free medium obtained by adding 20% KSR, 0.1 mM 2-mercaptoethanol, 1 mM pyruvic acid, 20 μM Y27632 and a substance inhibiting the Wnt signal pathway (3 μM IWR1e) to G-MEM medium was used. Matrigel was added in an amount of 1/100 per volume from day 2 of the floating culture and floating culture was performed. The aggregate was transferred to a serum-free medium without containing a substance inhibiting the Wnt signal pathway on day 12 from the start of the floating culture, fetal calf serum in an amount of 1/10 per volume was added and cultured. […]

The test system of data set [1] is RAX::GFP knock-in human ES cells. In words: Production of optic-cup-like structure from human ES cell aggregates. The class given is cell-based. As to conditions: 3 μM CHIR99021 and 100 nM SAG together in serum-containing medium from day 15. The method, then: RAX::GFP knock-in human ES cells (derived from KhES-1) were cultured according to the methods described in “Ueno, M. et al. PNAS 2006”, “Watanabe, K. et al. Nat Biotech 2007” and used for the experiment. As the medium, DMEM/F12 medium (Invitrogen) added with 20% KSR (Knockout Serum Replacement; Invitrogen), 0.1 mM 2-mercaptoethanol, 1 mM pyruvic acid, and 5 to 10 ng/ml bFGF was used. For the formation of aggregate by floating culture, the ES cells were dispersed into single cells by using 0.25% trypsin-EDTA (Invitrogen), suspended in a serum-free medium (100 μl) to 9×10^3 cells per well of a non-cell adhesive 96-well culture plate (SUMILON spheroid plate, SUMITOMO BAKELITE CO., LTD.) to allow for rapid formation of aggregates, and floating cultured at 37° C., 5% CO2. As the serum-free medium in this case, a serum-free medium obtained by adding 20% KSR, 0.1 mM 2-mercaptoethanol, 1 mM pyruvic acid, 20 μM Y27632 and a substance inhibiting the Wnt signal pathway (3 μM IWR1e) to G-MEM medium was used. During the floating culture, Matrigel in an amount of 1/100 per volume was added from day 2 from the start of the floating culture. The floating aggregate was transferred to a serum-free medium without a substance inhibiting the Wnt signal pathway on day 12 from the start of the floating culture, fetal calf serum in an amount of 1/10 per volume was added and the aggregate was cultured. […]

For the molecule `Cc1c[nH]c(-c2cnc(NCCNc3ccc(C#N)cn3)nc2-c2ccc(Cl)cc2Cl)n1` [CHIR99021], the “retinal pigment epithelium on aggregates (bright-field)” value in the data set with Human ES cells (KhES-1) (3 μM CHIR99021 from day 15, after IWR1e) is recorded as “emerged on almost all surfaces of the aggregates”. Moreover, in data set [1], the “optic-cup-like structure formation on aggregate” value is “a clear optic-cup-like structure was formed”.

Consider “Activin A: substance acting on the Activin signal pathway; Recombinant Human/Mouse/Rat Activin A (R&D systems #338-AC)”, for which the “retinal pigment epithelia on aggregates (bright-field)” value in the data set on Human ES cells (KhES-1) (Activin A 100 ng/ml with 3 μM CHIR99021 from day 15, after IWR1e) is given as “almost all the surfaces of the aggregates were covered with retinal pigment epithelia”.
